This passage reports IC50 results from patent publication US20090209577A1, “Novel Triazolopyridine Compounds” (PFIZER INC., priority 2004, published 2009).

Counter-ions that a name gives are not always drawn.

T1 sequence (Q16539 whole entry): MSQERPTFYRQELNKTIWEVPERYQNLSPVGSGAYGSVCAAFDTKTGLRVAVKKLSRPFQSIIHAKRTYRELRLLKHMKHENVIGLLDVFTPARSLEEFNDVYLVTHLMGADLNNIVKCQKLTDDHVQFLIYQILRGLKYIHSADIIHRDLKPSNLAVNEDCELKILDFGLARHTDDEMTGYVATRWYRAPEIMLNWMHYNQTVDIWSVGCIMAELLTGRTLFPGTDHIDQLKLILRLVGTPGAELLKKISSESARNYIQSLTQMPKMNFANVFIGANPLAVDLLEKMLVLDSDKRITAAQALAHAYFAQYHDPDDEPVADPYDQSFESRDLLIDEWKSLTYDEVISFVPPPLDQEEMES

This assay concerns the target T1, human p38 kinase alpha (Homo sapiens, UniProt Q16539).
T1 construct: The coding region of the human p38a cDNA was obtained by PCR-amplification from RNA isolated from the human monocyte cell line THP.1; made in house; host or cells: E. coli DH10B
Nature of the assay: p38 kinase in vitro assay (PHAS-I / 32P-ATP format or EGFRP / 33P-ATP format). It is filed as biochemical. The following applies: activated human p38 kinase alpha, 50 μM unlabeled ATP; two assay formats, table does not say which. How it is done:
The ability of compounds to inhibit human p38 kinase alpha was evaluated using two in vitro assay methods. In the first method, activated human p38 kinase alpha phosphorylates a biotinylated substrate, PHAS-I (phosphorylated heat and acid stable protein-insulin inducible), in the presence of gamma ^32P-ATP (^32P-ATP). PHAS-I was biotinylated prior to the assay and provides a means of capturing the substrate, which is phosphorylated during the assay. p38 Kinase was activated by MKK6. Compounds were tested in 10 fold serial dilutions over the range of 100 μM to 0.001 μM using 1% DMSO. Each concentration of inhibitor was tested in triplicate.
All reactions were carried out in 96 well polypropylene plates. Each reaction well contained 25 mM HEPES pH 7.5, 10 mM magnesium acetate and 50 μM unlabeled ATP. Activation of p38 was required to achieve sufficient signal in the assay. Biotinylated PHAS-1 was used at 1-2 μg per 50 μl reaction volume, with a final concentration of 1.5 μM. Activated human p38 kinase alpha was used at 1 μg per 50 μl reaction volume representing a final concentration of 0.3 μM. Gamma ^32P-ATP was used to follow the phosphorylation of PHAS-1. ^32P-ATP has a specific activity of 3000 Ci/mmol and was used at 1.2 μCi per 50 μl reaction volume. The reaction proceeded either for one hour or overnight at 30° C.
Following incubation, 20 μl of reaction mixture was transferred to a high capacity streptavidin coated filter plate (SAM-streptavidin-matrix, Promega) prewetted with phosphate buffered saline. The transferred reaction mix was allowed to contact the streptavidin membrane of the Promega plate for 1-2 minutes. Following capture of biotinylated PHAS-1 with ^32P incorporated, each well was washed to remove unincorporated ^32P-ATP three times with 2M NaCl, three washes of 2M NaCl with 1% phosphoric, three washes of distilled water and finally a single wash of 95% ethanol. Filter plates were air-dried and 20 μl of scintillant was added. The plates were sealed and counted.
A second assay format was also employed that is based on p38 kinase alpha induced phosphorylation of EGFRP (epidermal growth factor receptor peptide, a 21 mer) in the presence ^33P-ATP. Compounds were tested in 10 fold serial dilutions over the range of 100 μM to 0.001 μM in 1% DMSO. Each concentration of inhibitor was tested in triplicate. Compounds were evaluated in 50 μl reaction volumes in the presence of 25 mM Hepes pH 7.5, 10 mM magnesium acetate, 4% glycerol, 0.4% bovine serum albumin, 0.4 mM DTT, 50 μM unlabeled ATP, 25 μg EGFRP (200 μM), and 0.05 μCi ^33P-ATP. Reactions were initiated by addition of 0.09 μg of activated, purified human GST-p38 kinase alpha. Activation was carried out using GST-MKK6 (5:1, p38:MKK6) for one hour at 30° C. in the presence of 50 μM ATP. Following incubation for 60 minutes at room temperature, the reaction was stopped by addition of 150 μl of AG 1×8 resin in 900 mM sodium formate buffer, pH 3.0 (1 volume resin to 2 volumes buffer). The mixture was mixed three times with pipetting and the resin was allowed to settle. A total of 50 μl of clarified solution head volume was transferred from the reaction wells to Microlite-2 plates. 150 μl of Microscint 40 was then added to each well of the Microlite plate, and the plate was sealed, mixed, and counted.
The above protocol assays were used to determine the IC50 values for compounds in Examples 1-71 above.
Turning to `CC(C)(C)c1nnc2n1CC(c1ocnc1-c1cc(F)c(F)cc1F)CC2` (stereo not drawn) [Example 14, 3-tert-butyl-6-[4-(2,4,5-trifluorophenyl)-1,3-oxazol-5-yl]-5,6,7,8-tetrahydro[1,2,4]triazolo[4,3-a]pyridine], half-maximal inhibition (IC50) required 786 nM. That is a sub-micromolar value. Next, `CC(C)(C)c1nnc2ccc(C(=O)c3ccc(F)cc3F)cn12` [Example 15, (3-tert-butyl[1,2,4]triazolo[4,3-a]pyridin-6-yl)(2,4-difluorophenyl)methanone]: 1050 nM; `COC(=O)c1ccc(C)c(-c2nnc3ccc(/C=C/c4ccc(F)cc4F)cn23)c1` [Example 16, methyl 3-{6-[(E)-2-(2,4-difluorophenyl)vinyl][1,2,4]triazolo[4,3-a]pyridin-3-yl}-4-methylbenzoate]: 17.3 nM. In turn, `COC(=O)c1ccc(C)c(-c2nnc3ccc(CCc4ccc(F)cc4F)cn23)c1` [Example 17, methyl 3-{6-[2-(2,4-difluorophenyl)ethyl][1,2,4]triazolo[4,3-a]pyridin-3-yl}-4-methylbenzoate] gave an IC50 of 17.1 nM. Next, `Cc1ccc(C(=O)O)cc1-c1nnc2ccc(CCc3ccc(F)cc3F)cn12` [Example 21, 3-{6-[2-(2,4-difluorophenyl)ethyl][1,2,4]triazolo[4,3-a]pyridin-3-yl}-4-methylbenzoic acid]: 2710 nM.

Consider `NC(=O)c1ccc(-c2nnc3ccc(Sc4ccc(F)cc4F)cn23)cc1` [Example 23, 4-{6-[(2,4-difluorophenyl)thio][1,2,4]triazolo[4,3-a]pyridin-3-yl}benzamide], for which the half-maximal inhibitory concentration (IC50) amounted to 201 nM. The figure for `CNC(=O)c1ccc(-c2nnc3ccc(Sc4ccc(F)cc4F)cn23)cc1` [Example 24, 4-{6-[(2,4-difluorophenyl)thio][1,2,4]triazolo[4,3-a]pyridin-3-yl}-N-methylbenzamide] is 293 nM; for `O=C(NCCO)c1ccc(-c2nnc3ccc(Sc4ccc(F)cc4F)cn23)cc1` [Example 25, 4-{6-[(2,4-difluorophenyl)thio][1,2,4]triazolo[4,3-a]pyridin-3-yl}-N-(2-hydroxyethyl)benzamide] it is 93.6 nM. The figure for `NC(=O)c1cccc(-c2nnc3ccc(Sc4ccc(F)cc4F)cn23)c1` [Example 26, 3-{6-[(2,4-difluorophenyl)thio][1,2,4]triazolo[4,3-a]pyridin-3-yl}benzamide] is 241 nM; for `NC(=O)c1ccc(-c2nnc3ccc(Cc4ccc(F)cc4F)cn23)cc1` [Example 27, 4-[6-(2,4-difluorobenzyl)[1,2,4]triazolo[4,3-a]pyridin-3-yl]benzamide] it is 3020 nM.

`NC(=O)c1cccc(-c2nnc3ccc(Cc4ccc(F)cc4F)cn23)c1` [Example 28, 3-[6-(2,4-difluorobenzyl)[1,2,4]triazolo[4,3-a]pyridin-3-yl]benzamide]: the half-maximal inhibitory concentration (IC50) is 2980 nM.

Compound `COC(=O)c1cccc(-c2nnc3ccc(C(=O)c4ccc(F)cc4F)cn23)c1` [Example 29, methyl 3-[6-(2,4-difluorobenzoyl)[1,2,4]triazolo[4,3-a]pyridin-3-yl]benzoate] displayed an IC50 of 14000 nM. Compound `NC(=O)c1cccc(-c2nnc3ccc(C(=O)c4ccc(F)cc4F)cn23)c1` [Example 30, 3-[6-(2,4-difluorobenzoyl)[1,2,4]triazolo[4,3-a]pyridin-3-yl]benzamide] registered an IC50 of more than 100000 nM. The figure for `CC(C)(CC(O)CO)c1nnc2ccc(Sc3ccc(F)cc3F)cn12` (stereo not drawn) [Example 33, 4-{6-[(2,4-difluorophenyl)thio][1,2,4]triazolo[4,3,a]pyridin-3-yl}-4-methylpentane-1,2-diol hydrochloride] is 1740 nM; for `CC(C)c1nnc2cc(Cl)c(Sc3ccc(F)cc3F)c(Cl)n12` [Example 34, 5,7-dichloro-6-[(2,4-difluorophenyl)thio]-3-isopropyl[1,2,4]triazolo[4,3-a]pyridine] it is 3380 nM. As to `CC(C)c1nnc2cc(Cl)c(Sc3ccc(F)cc3F)cn12` [Example 35, 7-chloro-6-[(2,4-difluorophenyl)thio]-3-isopropyl[1,2,4]triazolo[4,3-a]pyridine hydrochloride], the IC50 turned out to be 889 nM.

Take `CC(C)c1nnc2ccc(Sc3ccc(F)cc3F)c(Cl)n12` [Example 36, 5-chloro-6-[(2,4-difluorophenyl)thio]-3-isopropyl[1,2,4]triazolo[4,3-a]pyridine]: the half-inhibitory concentration (IC50) is 12.3 nM. The figure for `CCCCSc1ccc2nnc(C(C)C)n2c1` [Example 37, 6-(butylthio)-3-isopropyl[1,2,4]triazolo[4,3-a]pyridine hydrochloride] is more than 100000 nM; for `Cc1c(Sc2ccc(F)cc2F)ccc2nnc(C(C)C)n12` [Example 38, 6-[(2,4-difluorophenyl)thio]-3-isopropyl-5-methyl[1,2,4]triazolo[4,3-a]pyridine] it is 101 nM. As to `CC(C)c1nnc2cc(Cl)c(Sc3ccc(F)cc3F)c(Br)n12` [Example 39, 5-bromo-7-chloro-6-[(2,4-difluorophenyl)thio]-3-isopropyl[1,2,4]triazolo[4,3-a]pyridine], the IC50 is 6080 nM.

Compound `Fc1cccc(F)c1-c1nnc2ccc(Br)cn12` [Example 40, 6-bromo-3-(2,6-difluorophenyl)[1,2,4]triazolo[4,3-a]pyridine] came in with a concentration for half-maximal inhibition (IC50) of 13300 nM. Take `Cc1ccc(C(N)=O)cc1-c1nnc2ccc(Sc3ccc(F)cc3F)cn12` [Example 41, 3-{6-[(2,4-difluorophenyl)thio][1,2,4]triazolo[4,3-a]pyridin-3-yl}-4-methylbenzamide]: the 50% inhibitory concentration (IC50) is 60.8 nM. The figure for `Cc1ccc(C(=O)NCC(N)=O)cc1-c1nnc2ccc(Sc3ccc(F)cc3F)cn12` [Example 42, N-(3-{6-[(2,4-difluorophenyl)thio][1,2,4]triazolo[4,3-a]pyridin-3-yl}-4-methylbenzoyl)glycinamide] is 46.5 nM; for `Cc1ccc(C(=O)NCCO)cc1-c1nnc2ccc(Sc3ccc(F)cc3F)cn12` [Example 43, 3-{6-[(2,4-difluorophenyl)thio][1,2,4]triazolo[4,3-a]pyridin-3-yl}-N-(2-hydroxyethyl)-4-methylbenzamide] it is 20.5 nM. Compound `O=C(CO)N1CCC(c2nnc3ccc(Sc4ccc(F)cc4F)cn23)CC1` [Example 44, 2-(4-{6-[(2,4-difluorophenyl)thio][1,2,4]triazolo[4,3-a]pyridin-3-yl}piperidin-1-yl)-2-oxoethanol hydrochloride] had an IC50 of 212 nM. In turn, `Cc1cc(CNCCO)ccc1-c1nnc2ccc(Sc3ccc(F)cc3F)cn12` [Example 45, 2-[(4-{6-[(2,4-difluorophenyl)thio][1,2,4]triazolo[4,3-a]pyridin-3-yl}-3-methylbenzyl)amino]ethanol dihydrochloride] registered a 50% inhibitory concentration (IC50) of 33.3 nM. This IC50 is about 6.4-fold lower than that of the compound before.

`CC1(c2nnc3ccc(Sc4ccc(F)cc4F)cn23)CC1` [Example 46, 6-[(2,4-difluorophenyl)thio]-3-(1-methylcyclopropyl)[1,2,4]triazolo[4,3-a]pyridine hydrochloride] had an IC50 of 24.9 nM. Next, `Fc1ccc(Sc2ccc3nnc(-c4c(F)cccc4F)n3c2)c(F)c1` [Example 47, 3-(2,6-difluorophenyl)-6-[(2,4-difluorophenyl)thio][1,2,4]triazolo[4,3-a]pyridine]: 7.2 nM. Next, `CC(C)(C)c1nnc2ccc(Sc3ccc(F)cc3F)cn12` [Example 48, 3-tert-butyl-6-[(2,4-difluorophenyl)thio][1,2,4]triazolo[4,3-a]pyridine]: 4.8 nM; `CNC(=O)c1ccc(C)c(-c2nnc3ccc(Sc4ccc(F)cc4F)cn23)c1` [Example 49, 3-{6-[(2,4-difluorophenyl)thio][1,2,4]triazolo[4,3-a]pyridin-3-yl}-N,4-dimethylbenzamide]: 39.9 nM.

A word on the IC50: it is the concentration that inhibits the measured activity by half. Low values mean greater potency in that assay, high ones weaker potency in that assay.
